Laboratory results from PubChem BioAssay AID1311 (NMMLSC, 2008).
Where a SMILES comes first, the peptide text is derived from it. The star is where a group is joined. Cbz = O=C(OCc1ccccc1)*

Tested on: Yeast Sic1MUS-GFP degradation, Cln2 overexpression, flow cytometry
Assay: degradation of ubiquitination-site mutant Sic1-GFP in yeast, confirmation, mechanism study for 26S proteasome disassembly project, flow cytometry, Cln2 overexpression, Sic1MUS mutant (AID 1311)
Conditions: stronger effect = higher value

Row | SMILES | percent GFP remaining [%]
1 | CC(=O)N1C(=O)C(=C2C=C(C)OC(C)=C2)c2ccccc21 | 2.25
2 | CC(C)C[C@@H](C=O)NC(=O)[C@H](CC(C)C)NC(=O)[C@H](CC(C)C)NC(=O)OCc1ccccc1 (Cbz-Leu-Leu-Leu-aldehyde) | 4.05
